The nature of data set [1]: Cytotoxicity against human THLE cells. Format: cell-based.
Data set [2] in a line: Oral bioavailability in Wistar Han rat at 1 mg/kg administered via gavage by LC-MS/MS analysis. The data set is classed as ADME, organism-based. Particulars: in vivo.
In data set [3] the target is Epidermal growth factor receptor (Homo sapiens, UniProt P00533).
For data set [4], the target named is T1, Tyrosine-protein kinase BTK (Homo sapiens, UniProt Q06187).
Description: Inhibition of full-length human His-tagged BTK expressed in baculovirus expression system using FAM-Srctide peptide as substrate preincubated for 1 hr followed by substrate addition and measured after 1 hr by TR-FRET Lanthascreen assay
Data set [5] in a line: Permeability in RRCK cells. Format: ADME, cell-based, Canis lupus familiaris, MDCKII-LE. As to conditions: dog, MDCK; read-out: permeability.
Data set [6] addresses T1, Tyrosine-protein kinase BTK. The source holds these as a separate data set.
Description: Reversible inhibition of full-length human His-tagged BTK expressed in baculovirus expression system assessed as apparent dissociation half life by kinase tracer 236 based TR-FRET assay
Data set [7] has the same target. Put plainly: Inhibition of BTK in human whole blood assessed as reduction in anti-human IgE antibody-stimulated histamine release pretreated for 2 hrs followed by anti-human IgE antibody-stimulation and measured after 30 mins by ELISA. Format: tissue-based. On the technique in general: ELISA stands for enzyme-linked immunosorbent assay.
For data set [8] the target is unchanged. Put plainly: Inhibition of BTK in goat anti-human IgM F(ab')2-stimulated human whole blood assessed as suppression of CD69 expression on B cells pretreated for 1 hr followed by goat anti-human IgM F(ab')2-stimualtion and measured after 3 hrs by Fix/Lyse reagent based flow cytometry. Format: tissue-based. (In general: A flow cytometer gives signals particle by particle.)

Data set [9] concerns the target Proto-oncogene tyrosine-protein kinase Src (Homo sapiens, UniProt P12931). Put plainly: Inhibition of full-length recombinant human C-terminal His-tagged SRC cytoplasmic domain expressed in baculovirus expression system using FAM-Srctide peptide as substrate preincubated for 1 hr followed by substrate addition and measured after 1 hr by TR-FRET Lanthascreen assay. On the technique in general: TR-FRET usually uses a lanthanide donor and a delayed reading to cut background.

The target in data set [10] is Tyrosine-protein kinase BTK (Homo sapiens, UniProt Q06187, C481S). Put plainly: Inhibition of full-length human C-terminal His6-tagged BTK C481S mutant expressed in Sf9 insect cells using FAM-Srctide peptide as substrate preincubated for 1 hr followed by substrate addition and measured after 1 hr by TR-FRET Lanthascreen assay.
Sequence of Tyrosine-protein kinase BTK (Homo sapiens, UniProt Q06187, C481S) (Q06187 2-659 C481S limits assumed): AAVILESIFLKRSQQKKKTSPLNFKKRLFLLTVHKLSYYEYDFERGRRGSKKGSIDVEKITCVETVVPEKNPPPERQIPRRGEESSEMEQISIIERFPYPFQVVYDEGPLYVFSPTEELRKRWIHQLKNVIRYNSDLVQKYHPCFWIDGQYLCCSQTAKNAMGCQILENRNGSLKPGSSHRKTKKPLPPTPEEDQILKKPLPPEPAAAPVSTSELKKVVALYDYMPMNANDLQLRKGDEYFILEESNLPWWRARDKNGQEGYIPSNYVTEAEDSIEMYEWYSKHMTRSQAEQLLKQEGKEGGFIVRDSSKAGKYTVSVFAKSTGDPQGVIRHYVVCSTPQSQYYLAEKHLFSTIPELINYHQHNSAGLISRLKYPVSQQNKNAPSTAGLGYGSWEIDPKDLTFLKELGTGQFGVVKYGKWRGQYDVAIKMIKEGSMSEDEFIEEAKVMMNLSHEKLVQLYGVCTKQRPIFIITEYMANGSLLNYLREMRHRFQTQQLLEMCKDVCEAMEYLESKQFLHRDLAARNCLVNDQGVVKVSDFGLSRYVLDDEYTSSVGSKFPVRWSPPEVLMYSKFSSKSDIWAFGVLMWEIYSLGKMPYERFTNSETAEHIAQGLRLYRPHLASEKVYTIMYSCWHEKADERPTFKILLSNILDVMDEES
Data set [11] is described as follows: Clearance in human microsomes. The data set is classed as ADME, Microsome.

These results are taken from ChEMBL document CHEMBL4382291, “Aminopyrazole Carboxamide Bruton's Tyrosine Kinase Inhibitors. Irreversible to Reversible Covalent Reactive Group Tuning” (ACS Med Chem Lett, 2019).

Each structure is given as a SMILES string.

Sequence of Epidermal growth factor receptor (P00533 whole entry): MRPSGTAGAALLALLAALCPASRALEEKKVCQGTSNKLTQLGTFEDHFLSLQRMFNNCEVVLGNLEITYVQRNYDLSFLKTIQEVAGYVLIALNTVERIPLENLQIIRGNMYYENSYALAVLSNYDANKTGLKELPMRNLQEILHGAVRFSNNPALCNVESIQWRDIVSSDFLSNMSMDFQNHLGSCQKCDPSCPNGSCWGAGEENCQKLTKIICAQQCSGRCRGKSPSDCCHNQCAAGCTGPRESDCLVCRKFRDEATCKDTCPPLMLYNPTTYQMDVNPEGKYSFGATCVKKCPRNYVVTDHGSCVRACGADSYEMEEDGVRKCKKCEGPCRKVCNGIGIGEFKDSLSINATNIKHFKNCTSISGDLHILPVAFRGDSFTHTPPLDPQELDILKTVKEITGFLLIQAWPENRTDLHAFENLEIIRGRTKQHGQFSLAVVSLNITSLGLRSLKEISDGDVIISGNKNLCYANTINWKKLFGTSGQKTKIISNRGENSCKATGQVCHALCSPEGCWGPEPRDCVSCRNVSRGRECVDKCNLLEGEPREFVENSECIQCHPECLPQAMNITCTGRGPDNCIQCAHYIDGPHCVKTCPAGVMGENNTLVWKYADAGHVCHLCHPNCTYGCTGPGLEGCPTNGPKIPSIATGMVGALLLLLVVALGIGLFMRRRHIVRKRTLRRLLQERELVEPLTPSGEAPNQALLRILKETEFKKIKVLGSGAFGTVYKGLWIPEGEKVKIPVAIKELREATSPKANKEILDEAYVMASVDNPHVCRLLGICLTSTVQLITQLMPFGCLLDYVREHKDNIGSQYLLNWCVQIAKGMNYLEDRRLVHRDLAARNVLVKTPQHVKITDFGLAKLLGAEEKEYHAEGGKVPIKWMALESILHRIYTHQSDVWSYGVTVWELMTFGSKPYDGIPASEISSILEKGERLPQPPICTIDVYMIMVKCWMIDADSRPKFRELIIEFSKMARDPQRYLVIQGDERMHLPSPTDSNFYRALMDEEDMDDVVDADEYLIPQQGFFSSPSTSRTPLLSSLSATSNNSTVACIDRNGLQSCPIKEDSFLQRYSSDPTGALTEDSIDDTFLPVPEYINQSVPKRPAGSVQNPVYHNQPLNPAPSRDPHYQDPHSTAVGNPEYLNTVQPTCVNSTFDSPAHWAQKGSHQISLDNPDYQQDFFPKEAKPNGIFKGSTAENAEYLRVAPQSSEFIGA
Sequence of Proto-oncogene tyrosine-protein kinase Src (P12931 2-536 limits assumed): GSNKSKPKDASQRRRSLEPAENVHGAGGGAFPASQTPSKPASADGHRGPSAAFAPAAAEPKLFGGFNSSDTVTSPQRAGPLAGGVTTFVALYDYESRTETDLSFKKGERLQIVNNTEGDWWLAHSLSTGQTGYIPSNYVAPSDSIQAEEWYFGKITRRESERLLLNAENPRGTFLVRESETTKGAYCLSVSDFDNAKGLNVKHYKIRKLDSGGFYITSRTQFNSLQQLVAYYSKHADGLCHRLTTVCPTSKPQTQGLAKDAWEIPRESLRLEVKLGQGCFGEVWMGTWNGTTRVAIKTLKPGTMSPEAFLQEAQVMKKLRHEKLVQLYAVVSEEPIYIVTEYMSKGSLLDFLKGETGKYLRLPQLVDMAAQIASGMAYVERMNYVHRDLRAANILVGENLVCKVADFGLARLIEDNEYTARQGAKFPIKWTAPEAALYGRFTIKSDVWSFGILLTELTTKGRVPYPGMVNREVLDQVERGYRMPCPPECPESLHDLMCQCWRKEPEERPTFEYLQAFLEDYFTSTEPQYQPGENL
T1 sequence (Q06187 whole entry): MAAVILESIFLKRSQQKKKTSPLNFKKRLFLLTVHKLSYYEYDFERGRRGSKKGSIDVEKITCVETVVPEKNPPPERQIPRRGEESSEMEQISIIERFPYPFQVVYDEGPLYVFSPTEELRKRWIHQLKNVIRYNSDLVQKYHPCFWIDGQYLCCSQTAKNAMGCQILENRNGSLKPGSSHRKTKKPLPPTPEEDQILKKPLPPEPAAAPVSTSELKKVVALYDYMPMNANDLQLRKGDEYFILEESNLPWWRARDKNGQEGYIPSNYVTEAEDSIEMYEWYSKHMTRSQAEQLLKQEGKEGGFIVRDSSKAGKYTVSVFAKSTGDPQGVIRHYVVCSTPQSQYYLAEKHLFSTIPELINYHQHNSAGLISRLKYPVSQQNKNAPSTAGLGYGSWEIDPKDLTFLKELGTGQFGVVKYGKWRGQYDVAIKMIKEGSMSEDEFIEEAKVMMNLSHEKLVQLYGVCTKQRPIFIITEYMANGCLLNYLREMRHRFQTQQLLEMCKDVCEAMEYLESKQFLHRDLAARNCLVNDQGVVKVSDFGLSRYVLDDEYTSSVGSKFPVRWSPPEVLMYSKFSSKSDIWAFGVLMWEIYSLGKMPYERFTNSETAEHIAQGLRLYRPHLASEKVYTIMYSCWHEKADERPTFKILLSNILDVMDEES

For the compound `N#CN1CCC[C@@H](n2nc(-c3ccc(Oc4ccc(F)cc4F)cc3)c(C(N)=O)c2N)C1`, the half-maximal inhibitory concentration (IC50) was 137000 nM in [1]; 16800 nM in [3]; 1.5 nM in data set [4]; 64 nM in [7]; 53 nM in data set [8]; 1630 nM in data set [9]. Moreover, in data set [10], the half-inhibitory concentration (IC50) was determined as 43 nM. The same compound registered a bioavailability in data set [2] of 76 to 93%. The Papp in [5] is greater than 10 ×10⁻⁶ cm/s. In addition, in data set [6], the T1/2 was determined as 6 h. The compound further returned an intrinsic clearance (microsomal CLint) in data set [11] of less than 8 µL/min/mg.
On to `N#CN1CCC[C@@H](n2nc(-c3ccc(Oc4ncc(Cl)cc4F)cc3)c(C(N)=O)c2N)C1`, for which the bioavailability in data set [2] is 76 to 93%. For the same compound, the IC50 in data set [3] was greater than 20000 nM; in data set [7], 50 nM; in data set [8], 89 nM; in [9], greater than 20000 nM; in data set [10], 230 nM. Besides, the Papp in [5] is greater than 10 ×10⁻⁶ cm/s. Further, in data set [6], the T1/2 stood at 5 h. This compound returned a microsomal CLint in data set [11] of less than 8 µL/min/mg.
On to `C=C(F)C(=O)N1CCC[C@@H](n2nc(-c3ccc(Oc4ccc(F)cc4F)cc3)c(C(N)=O)c2N)C1`, for which the IC50 in [1] was 67000 nM; in [3], 570 nM; in [9] it was 6480 nM; in data set [10], 170 nM. The same compound had a T1/2 in [6] greater than 24 h.
With `C=CC(=O)N1CCC[C@@H](n2nc(-c3ccc(Oc4ccc(Cl)cc4)cc3)c(C(N)=O)c2N)C1`, the IC50 in data set [3] is 15 nM; in data set [4] it was 0.18 nM; in data set [9], 72 nM.
For `C=CC(=O)N1CCC[C@@H](n2nc(-c3ccc(Oc4ccc(F)cc4F)cc3)c(C(N)=O)c2N)C1`, the half-maximal inhibitory concentration (IC50) in data set [1] stood at 15000 nM; in data set [3], 26 nM; in data set [4], 0.25 nM; in data set [9], 4030 nM; in [10], 17 nM. The compound also came in with a T1/2 in [6] greater than 24 h.
Take `NC(=O)c1c(-c2ccc(Oc3ccc(F)cc3F)cc2)nn([C@@H]2CCCN(C(=O)/C=C/C(F)F)C2)c1N`: the IC50 worked out at 8000 nM in [1], 0.41 nM in data set [4], 5840 nM in data set [9] and 115 nM in [10]. The T1/2 in [6] was greater than 24 h.
`NC(=O)c1c(-c2ccc(Oc3ccc(F)cc3F)cc2)nn([C@@H]2CCCN(C(=O)/C=C/CF)C2)c1N`: the IC50 in [1] was found to be 49000 nM; in data set [4], 2.7 nM; in data set [9], 3140 nM; in data set [10] it was 90 nM. This compound returned a T1/2 in [6] greater than 24 h.
For the compound `CN(C)C/C=C/C(=O)N1CCC[C@@H](n2nc(-c3ccc(Oc4ccc(F)cc4F)cc3)c(C(N)=O)c2N)C1`, the half-inhibitory concentration (IC50) in data set [1] was found to be 15000 nM; in data set [3] it was 149 nM; in data set [4], 3.7 nM; in data set [9] it was 370 nM; in data set [10], 65 nM. In data set [6], the T1/2 was greater than 24 h.
As for `N#CN1CCC[C@@H](n2nc(-c3ccc(Oc4ccc(Cl)cc4)cc3)c(C(N)=O)c2N)C1`, the bioavailability in [2] fell in the range of 76 to 93%. Further, in data set [5], the Papp was greater than 10 ×10⁻⁶ cm/s. This compound displayed a T1/2 in data set [6] of 6 h. Further, the half-maximal inhibitory concentration (IC50) came to 21 nM in data set [7], 46 nM in data set [8], 1400 nM in data set [9] and 48 nM in data set [10]. In data set [11], this compound yielded a microsomal CLint of less than 8 µL/min/mg.
In [1], `C=CC(=O)N1CCC[C@@H](n2nc(-c3ccc(Oc4ccccc4)cc3)c3c(N)ncnc32)C1` [IBRUTINIB] displayed an IC50 of 11000 nM.
As for `NC(=O)c1c(-c2ccc(Oc3ccc(F)cc3F)cc2)nn([C@@H]2CCCN(C(=O)/C=C/CO)C2)c1N`, the concentration for half-maximal inhibition (IC50) in data set [1] stood at 43000 nM; in [3], 2910 nM; in data set [9], 4610 nM; in [10], 33 nM. In [6], this compound had a T1/2 greater than 24 h.
On to `N#CN1CCC[C@@H](n2nc(-c3ccc(Oc4ccccc4)cc3)c(C(N)=O)c2N)C1`, for which the IC50 in data set [3] was determined as 1710 nM; in data set [4], 0.37 nM; in [9], 4.2 nM; in [10], 2.8 nM. In data set [6], the T1/2 is 7 h.
Regarding `C=C(C)C(=O)N1CCC[C@@H](n2nc(-c3ccc(Oc4ccc(F)cc4F)cc3)c(C(N)=O)c2N)C1`, the IC50 is greater than 20000 nM in data set [3], 247 nM in [4], 3350 nM in [9] and 176 nM in [10].
For `N#CN1CCC[C@@H](n2nc(-c3ccc(Oc4ccc(Cl)cn4)cc3)c(C(N)=O)c2N)C1`, in [2], the bioavailability was in the range of 76 to 93%. Further, the IC50 in data set [3] is 15400 nM; in data set [4], 6.2 nM; in data set [7] it was 95 nM; in data set [8], 45 nM; in data set [9] it was greater than 20000 nM; in data set [10] it was 92 nM. For the same compound, in data set [5], the Papp was greater than 10 ×10⁻⁶ cm/s. Besides, the T1/2 in [6] was 7 h. In data set [11], this compound came in with a microsomal CLint of less than 8 µL/min/mg.
As to `C/C=C/C(=O)N1CCC[C@@H](n2nc(-c3ccc(Oc4ccc(F)cc4F)cc3)c(C(N)=O)c2N)C1`, the concentration for half-maximal inhibition (IC50) was 149000 nM in data set [1]; greater than 20000 nM in data set [3]; 61 nM in [4]; 3410 nM in [9]; 66 nM in data set [10]. In addition, the T1/2 in [6] was greater than 24 h.
The compound `N#CN1CCC[C@@H](n2nc(-c3ccc(Oc4cccc(C(F)(F)F)n4)cc3)c(C(N)=O)c2N)C1` had a bioavailability in data set [2] of 76 to 93%. The IC50 in data set [3] was greater than 20000 nM; in data set [7], 42 nM; in data set [8], 33 nM; in data set [9], 14400 nM; in data set [10], 36 nM. Also, the Papp in [5] was greater than 10 ×10⁻⁶ cm/s. The same compound came in with a T1/2 in data set [6] of 3 h. In addition, in data set [11], the microsomal CLint is less than 8 µL/min/mg.

A word on the IC50: it is the midpoint of a concentration-inhibition curve. What is called bioavailability is dose-corrected exposure relative to a reference, in per cent. For orientation: microsomal CLint means the capacity of the preparation to metabolise the compound, expressed as a volume cleared per time.
